For the experiment, the target named is T1, human APJ receptor (Homo sapiens, UniProt P35414).
T1 construct: expressed in transfected cells
T1 sequence (P35414 1-380): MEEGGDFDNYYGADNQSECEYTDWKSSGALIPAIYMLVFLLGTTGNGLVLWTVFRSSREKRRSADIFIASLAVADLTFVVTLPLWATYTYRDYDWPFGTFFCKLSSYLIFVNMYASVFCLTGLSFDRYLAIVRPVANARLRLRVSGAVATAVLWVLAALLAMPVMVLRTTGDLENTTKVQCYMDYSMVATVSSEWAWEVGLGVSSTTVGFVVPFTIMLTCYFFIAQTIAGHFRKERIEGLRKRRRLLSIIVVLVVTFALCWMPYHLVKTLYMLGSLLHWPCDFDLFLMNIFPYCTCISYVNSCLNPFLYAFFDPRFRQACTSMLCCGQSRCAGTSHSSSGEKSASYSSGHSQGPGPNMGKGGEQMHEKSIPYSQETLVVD
Kind of experiment: Intracellular cAMP accumulation assay (APJ hcAMP, HTRF). It counts as cell-based. Particulars: HEK293 cells stably expressing human APJ receptor. The method, boiled down:
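HEK293 cells stably expressing human APJ, 5,000/well, incubated 30 min at room temperature with compound plus […] and 2 μM forskolin. cAMP read by HTRF against a cAMP standard curve; EC50 from variable-slope sigmoidal fit, Ymax as % of (Pyr1)apelin-13 inhibition.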
Background: cAMP levels reflect the balance of adenylyl cyclase and phosphodiesterase activity.

[1] abbreviates: Table 1, inhibition of forskolin-mediated cAMP production, read-out: APJ hcAMP EC50.
[2] abbreviates: Table 2, read-out: APJ cAMP Human EC50.
The mark [3] stands for this setting: Table 3, read-out: APJ cAMP Human EC50.

pEC50: −log10 of the molar value. Read-outs that look alike come from different tables or passages of the source.

The term pEC50 denotes the EC50 on a negative log10 scale, so that one unit is a factor of ten. Turning to `CN(C)C[C@@H](NC(=O)c1ccc(-c2cc(Cl)ccc2-c2nc3ccccc3[nH]2)c(C(=O)O)c1)c1ccccc1` [Example 77, 2′-(1H-1,3-benzodiazol-2-yl)-5′-chloro-4-{[(1S)-2-(dimethylamino)-1-phenylethyl]carbamoyl}-[1,1′-biphenyl]-2-carboxylic acid], the pEC50 under setting [1] was 7.00 to 8.00 and the pEC50 under setting [2] was 7.00 to 8.00.

On to `COC[C@H](Cc1ccccc1)NC(=O)c1ccc(-c2cc(Cl)ccc2-c2nc3ccccc3[nH]2)c(C(=O)O)c1` [Example 78, 2′-(1H-1,3-benzodiazol-2-yl)-5′-chloro-4-{[(2S)-1-methoxy-3-phenylpropan-2-yl]carbamoyl}-[1,1′-biphenyl]-2-carboxylic acid], for which the pEC50 under setting [1] was 6.30 to 7.00 and the negative-log EC50 (pEC50) under setting [2] is 6.30 to 7.00.

Take `COC[C@@H](NC(=O)c1ccc(-c2cc(Cl)ccc2-c2nc3cc(Cl)ccc3[nH]2)c(C(=O)O)c1)c1ccccc1` [Example 79, 5′-chloro-2′-(5-chloro-1H-1,3-benzodiazol-2-yl)-4-{[(1S)-2-methoxy-1-phenylethyl]carbamoyl}-[1,1′-biphenyl]-2-carboxylic acid]: the negative logarithm of the EC50 (pEC50) reads like this: under setting [1], greater than 8.00; under setting [2], greater than 8.00.

Take `COC[C@@H](NC(=O)c1ccc(-c2cc(Cl)ccc2-c2nc3cc(C(C)(C)C)ccc3[nH]2)c(C(=O)O)c1)c1ccccc1` [Example 80, 2′-(5-tert-butyl-1H-1,3-benzodiazol-2-yl)-5′-chloro-4-{[(1S)-2-methoxy-1-phenylethyl]carbamoyl}-[1,1′-biphenyl]-2-carboxylic acid]: the pEC50 by setting is: under setting [1], greater than 8.00; under setting [2], greater than 8.00.

Take `CCCC(NC(=O)c1ccc(-c2c(Cl)cccc2-c2nc3cc(OC)c(F)cc3[nH]2)c(C(=O)O)c1)c1ccccc1` [Example 84, (S)-2′-chloro-6′-(6-fluoro-5-methoxy-1H-1,3-benzodiazol-2-yl)-4-{[(1R)-1-phenylbutyl]carbamoyl}-[1,1′-biphenyl]-2-carboxylic acid]: under setting [3], the negative logarithm of the EC50 (pEC50) is greater than 8.00.

Regarding `CCCC(NC(=O)c1ccc(-c2c(Cl)cccc2-c2nc3cc(OC)c(OC)cc3[nH]2)c(C(=O)O)c1)c1ccccc1` [Example 93, (S)-2′-chloro-6′-(5,6-dimethoxy-1H-1,3-benzodiazol-2-yl)-4-{[(1R)-1-phenylbutyl]carbamoyl}-[1,1′-biphenyl]-2-carboxylic acid], the negative logarithm of the EC50 (pEC50) runs as follows: under setting [1], greater than 8.00; under setting [3], greater than 8.00.

Take `CCCC(NC(=O)c1ccc(-c2c(Cl)cccc2-c2ncc(-c3c(F)ccc(F)c3F)[nH]2)c(C(=O)O)c1)c1ccccc1` [Example 100, (S)-2′-chloro-4-{[(1R)-1-phenylbutyl]carbamoyl}-6′-[5-(2,3,6-trifluorophenyl)-1H-imidazol-2-yl]-[1,1′-biphenyl]-2-carboxylic acid]: the negative logarithm of the EC50 (pEC50) under setting [3] is greater than 8.00.

On to `CCCC(NC(=O)c1ccc(-c2c(Cl)cccc2-c2ncc(-c3cccnc3)[nH]2)c(C(=O)O)c1)c1ccccc1` [Example 101, (S)-2′-chloro-4-{[(1R)-1-phenylbutyl]carbamoyl}-6′-[5-(pyridin-3-yl)-1H-imidazol-2-yl]-[1,1′-biphenyl]-2-carboxylic acid], for which the negative-log EC50 (pEC50) under setting [3] was greater than 8.00.

Take `COc1cc2[nH]c(-c3cccc(Cl)c3-c3ccc(C(=O)NC(C)C)cc3C(=O)O)nc2cc1F` [Example 109, (S)-2′-chloro-6′-(5-fluoro-6-methoxy-1H-1,3-benzodiazol-2-yl)-4-[(propan-2-yl)carbamoyl]-[1,1′-biphenyl]-2-carboxylic acid]: the pEC50 is 7.00 to 8.00 under setting [1] and 7.00 to 8.00 under setting [3].

Regarding `COc1cc2[nH]c(-c3cccc(Cl)c3-c3ccc(C(=O)N4CCC(c5ccccc5)CC4)cc3C(=O)O)nc2cc1F` [Example 110, (S)-2′-chloro-6′-(5-fluoro-6-methoxy-1H-1,3-benzodiazol-2-yl)-4-(4-phenylpiperidine-1-carbonyl)-[1,1′-biphenyl]-2-carboxylic acid], the pEC50 is greater than 8.00 under setting [1] and greater than 8.00 under setting [3].

As to `COCCNC(=O)c1ccc(-c2c(Cl)cccc2-c2nc3cc(F)c(OC)cc3[nH]2)c(C(=O)O)c1` [Example 111, (S)-2′-chloro-6′-(5-fluoro-6-methoxy-1H-1,3-benzodiazol-2-yl)-4-[(2-methoxyethyl)carbamoyl]-[1,1′-biphenyl]-2-carboxylic acid], the pEC50 under setting [3] was greater than 8.00.

Take `COc1cc2[nH]c(-c3cccc(Cl)c3-c3ccc(C(=O)NCCc4ccccc4)cc3C(=O)O)nc2cc1F` [Example 112, (S)-2′-chloro-6′-(5-fluoro-6-methoxy-1H-1,3-benzodiazol-2-yl)-4-[(2-phenylethyl)carbamoyl]-[1,1′-biphenyl]-2-carboxylic acid]: the pEC50 is greater than 8.00 under setting [1] and greater than 8.00 under setting [3].

For `COc1cc2[nH]c(-c3cccc(Cl)c3-c3ccc(C(=O)N4CCc5ccccc5C4)cc3C(=O)O)nc2cc1F` [Example 113, (S)-2′-chloro-6′-(5-fluoro-6-methoxy-1H-1,3-benzodiazol-2-yl)-4-(1,2,3,4-tetrahydroisoquinoline-2-carbonyl)-[1,1′-biphenyl]-2-carboxylic acid], the negative-log EC50 (pEC50) under setting [1] is greater than 8.00 and the negative-log EC50 (pEC50) under setting [3] was greater than 8.00.

In the case of `COc1cc2[nH]c(-c3cccc(Cl)c3-c3ccc(C(=O)NCCC(C)C)cc3C(=O)O)nc2cc1F` [Example 114, (S)-2′-chloro-6′-(5-fluoro-6-methoxy-1H-1,3-benzodiazol-2-yl)-4-[(3-methylbutyl)carbamoyl]-[1,1′-biphenyl]-2-carboxylic acid], the pEC50 under setting [1] was greater than 8.00 and the pEC50 under setting [3] is greater than 8.00.

Regarding `COc1ccc(CNC(=O)c2ccc(-c3c(Cl)cccc3-c3nc4cc(F)c(OC)cc4[nH]3)c(C(=O)O)c2)cc1` [Example 115, (S)-2′-chloro-6′-(5-fluoro-6-methoxy-1H-1,3-benzodiazol-2-yl)-4-{[(4-methoxyphenyl)methyl]carbamoyl}-[1,1′-biphenyl}-2-carboxylic acid], the negative logarithm of the EC50 (pEC50) under setting [3] was 7.00 to 8.00.

For the compound `COC(=O)CCNC(=O)c1ccc(-c2c(Cl)cccc2-c2nc3cc(F)c(OC)cc3[nH]2)c(C(=O)O)c1` [Example 116, (S)-2′-chloro-6′-(5-fluoro-6-methoxy-1H-1,3-benzodiazol-2-yl)-4-[(3-methoxy-3-oxopropyl)carbamoyl]-[1,1′-biphenyl]-2-carboxylic acid], the negative-log EC50 (pEC50) under setting [3] is 7.00 to 8.00.

As to `COc1cc2[nH]c(-c3cccc(Cl)c3-c3ccc(C(=O)NCC(c4ccccc4)c4ccccc4)cc3C(=O)O)nc2cc1F` [Example 117, (S)-2′-chloro-4-[(2,2-diphenylethyl)carbamoyl]-6′-(5-fluoro-6-methoxy-1H-1,3-2-benzodiazol-2-yl)-[1,1′-biphenyl]-2-carboxylic acid], the negative logarithm of the EC50 (pEC50) was 7.00 to 8.00 under setting [1] and 7.00 to 8.00 under setting [3].

As to `COc1cc2[nH]c(-c3cccc(Cl)c3-c3ccc(C(=O)N4CCN(C)CC4)cc3C(=O)O)nc2cc1F` [Example 118, (S)-2′-chloro-6′-(5-fluoro-6-methoxy-1H-1,3-benzodiazol-2-yl)-4-(4-methylpiperazine-1-carbonyl)-[1,1′-biphenyl]-2-carboxylic acid], the pEC50 is 7.00 to 8.00 under setting [1] and 7.00 to 8.00 under setting [3].

On to `COc1cc2[nH]c(-c3cccc(Cl)c3-c3ccc(C(=O)NCc4ccccc4)cc3C(=O)O)nc2cc1F` [Example 119, (S)-4-(benzylcarbamoyl)-2′-chloro-6′-(5-fluoro-6-methoxy-1H-1,3-benzodiazol-2-yl)-[1,1′-biphenyl]-2-carboxylic acid], for which the pEC50 runs as follows: under setting [1], 7.00 to 8.00; under setting [3], 7.00 to 8.00.

Regarding `COc1cc2[nH]c(-c3cccc(Cl)c3-c3ccc(C(=O)NCc4ccc(Cl)cc4)cc3C(=O)O)nc2cc1F` [Example 120, (S)-2′-chloro-4-{[(4-chlorophenyl)methyl]carbamoyl}-6′-(5-fluoro-6-methoxy-1H-1,3-benzodiazol-2-yl)-[1,1′-biphenyl]-2-carboxylic acid], the pEC50 runs as follows: under setting [1], 7.00 to 8.00; under setting [3], 7.00 to 8.00.

Take `COc1cc2[nH]c(-c3cccc(Cl)c3-c3ccc(C(=O)NCC(C)C)cc3C(=O)O)nc2cc1F` [Example 121, (S)-2′-chloro-6′-(5-fluoro-6-methoxy-1H-1,3-benzodiazol-2-yl)-4-[(2-methylpropyl)carbamoyl [1,1′-biphenyl]-2-carboxylic acid]: the pEC50 runs as follows: under setting [1], 7.00 to 8.00; under setting [3], 7.00 to 8.00.

With `COc1cc2[nH]c(-c3cccc(Cl)c3-c3ccc(C(=O)NCCCN(C)C)cc3C(=O)O)nc2cc1F` [Example 122, (S)-2′-chloro-4-{[3-(dimethylamino)propyl]carbamoyl}-6′-(5-fluoro-6-methoxy-1H-1,3-benzodiazol-2-yl)-[1,1′-biphenyl]-2-carboxylic acid], the negative-log EC50 (pEC50) was 7.00 to 8.00 under setting [1] and 7.00 to 8.00 under setting [3].

In the case of `COc1cc2[nH]c(-c3cccc(Cl)c3-c3ccc(C(=O)N4CCC(O)CC4)cc3C(=O)O)nc2cc1F` [Example 123, (S)-2′-chloro-6′-(5-fluoro-6-methoxy-1H-1,3-benzodiazol-2-yl)-4-(4-hydroxypiperidine-1-carbonyl)-[1,1′-biphenyl]-2-carboxylic acid], the negative-log EC50 (pEC50) is 7.00 to 8.00 under setting [1] and 7.00 to 8.00 under setting [3].

As for `COc1cc2[nH]c(-c3cccc(Cl)c3-c3ccc(C(=O)N4CCCC4)cc3C(=O)O)nc2cc1F` [Example 124, (S)-2′-chloro-6′-(5-fluoro-6-methoxy-2-yl)-4-(pyrrolidine-1-carbonyl)-[1,1′-biphenyl]-2-carboxylic acid], the pEC50 was 7.00 to 8.00 under setting [1] and 7.00 to 8.00 under setting [3].

For the origin of these results see patent US11498903B2 (BRISTOL-MYERS SQUIBB COMPANY, priority 2017, dated 2022).
